# According to PubChem BioAssay (NCI):
#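 Dose response: 5 concentrations. Exposure: 48 h. Format: 96-well plates. Endpoint: linear interpolation; highest concentration if not reached. TGI: concentration producing complete growth inhibition.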
# What was measured:
# Test in all cases: NCI anticancer screen, dose series, 48 h
# 786-0 renal = tested on: 786-0 renal
# A549 NSCLC = tested on: A549 NSCLC
# ACHN renal = tested on: ACHN renal
# CAKI-1 renal = tested on: CAKI-1 renal
# CCRF-CEM leukemia = tested on: CCRF-CEM leukemia
# COLO 205 colon = tested on: COLO 205 colon
# DLD-1 colon = tested on: DLD-1 colon
# DMS 114 small cell lung = tested on: DMS 114 small cell lung
# DMS 273 small cell lung = tested on: DMS 273 small cell lung
# EKVX NSCLC = tested on: EKVX NSCLC
# HCT-116 colon = tested on: HCT-116 colon
# HCT-15 colon = tested on: HCT-15 colon
# HL-60(TB) leukemia = tested on: HL-60(TB) leukemia
# HOP-18 NSCLC = tested on: HOP-18 NSCLC
# HOP-62 NSCLC = tested on: HOP-62 NSCLC
# HOP-92 NSCLC = tested on: HOP-92 NSCLC
# HT29 colon = tested on: HT29 colon
# IGROV1 ovarian = tested on: IGROV1 ovarian
# K-562 leukemia = tested on: K-562 leukemia
# KM12 colon = tested on: KM12 colon
# KM20L2 colon = tested on: KM20L2 colon
# LXFL 529 NSCLC = tested on: LXFL 529 NSCLC
# M14 melanoma = tested on: M14 melanoma
# M19-MEL melanoma = tested on: M19-MEL melanoma
# MALME-3M melanoma = tested on: MALME-3M melanoma
# MOLT-4 leukemia = tested on: MOLT-4 leukemia
# NCI-H226 lung = tested on: NCI-H226 lung
# NCI-H23 lung = tested on: NCI-H23 lung
# NCI-H460 lung = tested on: NCI-H460 lung
# NCI-H522 lung = tested on: NCI-H522 lung
# OVCAR-3 ovarian = tested on: OVCAR-3 ovarian
# OVCAR-4 ovarian = tested on: OVCAR-4 ovarian
# OVCAR-8 ovarian = tested on: OVCAR-8 ovarian
# RPMI-8226 leukemia = tested on: RPMI-8226 leukemia
# RXF 393 renal = tested on: RXF 393 renal
# SF-268 CNS = tested on: SF-268 CNS
# SF-295 CNS = tested on: SF-295 CNS
# SF-539 CNS = tested on: SF-539 CNS
# SK-MEL-2 melanoma = tested on: SK-MEL-2 melanoma
# SK-MEL-28 melanoma = tested on: SK-MEL-28 melanoma
# SK-MEL-5 melanoma = tested on: SK-MEL-5 melanoma
# SK-OV-3 ovarian = tested on: SK-OV-3 ovarian
# SN12C renal = tested on: SN12C renal
# SNB-19 CNS = tested on: SNB-19 CNS
# SNB-75 CNS = tested on: SNB-75 CNS
# SR leukemia = tested on: SR leukemia
# SW-620 colon = tested on: SW-620 colon
# TK-10 renal = tested on: TK-10 renal
# U251 CNS = tested on: U251 CNS
# UACC-257 melanoma = tested on: UACC-257 melanoma
# UACC-62 melanoma = tested on: UACC-62 melanoma
# UO-31 renal = tested on: UO-31 renal
# A498 renal = tested on: A498 renal
# LOX IMVI melanoma = tested on: LOX IMVI melanoma
# OVCAR-5 ovarian = tested on: OVCAR-5 ovarian
# SNB-78 CNS = tested on: SNB-78 CNS
# XF 498 CNS = tested on: XF 498 CNS
# HCC-2998 colon = tested on: HCC-2998 colon
smiles,measurement,setting,value
CC(C)[C@H]1CO[C@]2(C)[C@@H]3CN(Cc4ccccc4)C[C@@H]3C(=O)N12,TGI,786-0 renal,> 100 µM
same,TGI,A549 NSCLC,> 100 µM
same,TGI,ACHN renal,> 100 µM
same,TGI,CAKI-1 renal,> 100 µM
same,TGI,CCRF-CEM leukemia,> 100 µM
same,TGI,COLO 205 colon,> 100 µM
same,TGI,DLD-1 colon,> 100 µM
same,TGI,DMS 114 small cell lung,> 100 µM
same,TGI,DMS 273 small cell lung,> 100 µM
same,TGI,EKVX NSCLC,> 100 µM
same,TGI,HCT-116 colon,> 100 µM
same,TGI,HCT-15 colon,> 100 µM
same,TGI,HL-60(TB) leukemia,> 100 µM
same,TGI,HOP-18 NSCLC,> 100 µM
same,TGI,HOP-62 NSCLC,> 100 µM
same,TGI,HOP-92 NSCLC,> 100 µM
same,TGI,HT29 colon,> 100 µM
same,TGI,IGROV1 ovarian,> 100 µM
same,TGI,K-562 leukemia,> 100 µM
same,TGI,KM12 colon,> 100 µM
same,TGI,KM20L2 colon,> 100 µM
same,TGI,LXFL 529 NSCLC,> 100 µM
same,TGI,M14 melanoma,> 100 µM
same,TGI,M19-MEL melanoma,> 100 µM
same,TGI,MALME-3M melanoma,> 100 µM
same,TGI,MOLT-4 leukemia,> 100 µM
same,TGI,NCI-H226 lung,> 100 µM
same,TGI,NCI-H23 lung,> 100 µM
same,TGI,NCI-H460 lung,> 100 µM
same,TGI,NCI-H522 lung,> 100 µM
same,TGI,OVCAR-3 ovarian,> 100 µM
same,TGI,OVCAR-4 ovarian,> 100 µM
same,TGI,OVCAR-8 ovarian,> 100 µM
same,TGI,RPMI-8226 leukemia,> 100 µM
same,TGI,RXF 393 renal,> 100 µM
same,TGI,SF-268 CNS,> 100 µM
same,TGI,SF-295 CNS,> 100 µM
same,TGI,SF-539 CNS,> 100 µM
same,TGI,SK-MEL-2 melanoma,> 100 µM
same,TGI,SK-MEL-28 melanoma,> 100 µM
same,TGI,SK-MEL-5 melanoma,> 100 µM
same,TGI,SK-OV-3 ovarian,> 100 µM
same,TGI,SN12C renal,> 100 µM
same,TGI,SNB-19 CNS,> 100 µM
same,TGI,SNB-75 CNS,> 100 µM
same,TGI,SR leukemia,> 100 µM
same,TGI,SW-620 colon,> 100 µM
same,TGI,TK-10 renal,> 100 µM
same,TGI,U251 CNS,> 100 µM
same,TGI,UACC-257 melanoma,> 100 µM
same,TGI,UACC-62 melanoma,> 100 µM
same,TGI,UO-31 renal,> 100 µM
CC1=C(C(=O)O)N2C(=O)[C@@H](NC(=O)C(c3ccc(O)cc3)N3CSC(=S)N(C(C)C)C3)C2SC1 (stereo not given in full),TGI,786-0 renal,> 100 µM
same,TGI,A498 renal,> 100 µM
same,TGI,A549 NSCLC,> 100 µM
same,TGI,ACHN renal,> 100 µM
same,TGI,CCRF-CEM leukemia,> 100 µM
same,TGI,COLO 205 colon,> 100 µM
same,TGI,DLD-1 colon,> 100 µM
same,TGI,DMS 114 small cell lung,> 100 µM
same,TGI,DMS 273 small cell lung,> 100 µM
same,TGI,EKVX NSCLC,> 100 µM
same,TGI,HCT-116 colon,> 100 µM
same,TGI,HCT-15 colon,> 100 µM
same,TGI,HL-60(TB) leukemia,> 100 µM
same,TGI,HOP-18 NSCLC,> 100 µM
same,TGI,HOP-62 NSCLC,> 100 µM
same,TGI,HOP-92 NSCLC,> 100 µM
same,TGI,HT29 colon,> 100 µM
same,TGI,IGROV1 ovarian,> 100 µM
same,TGI,K-562 leukemia,> 100 µM
same,TGI,KM12 colon,> 100 µM
same,TGI,KM20L2 colon,> 100 µM
same,TGI,LOX IMVI melanoma,> 100 µM
same,TGI,LXFL 529 NSCLC,> 100 µM
same,TGI,M14 melanoma,> 100 µM
same,TGI,M19-MEL melanoma,> 100 µM
same,TGI,MALME-3M melanoma,> 100 µM
same,TGI,MOLT-4 leukemia,> 100 µM
same,TGI,NCI-H23 lung,> 100 µM
same,TGI,NCI-H460 lung,> 100 µM
same,TGI,NCI-H522 lung,> 100 µM
same,TGI,OVCAR-3 ovarian,> 100 µM
same,TGI,OVCAR-4 ovarian,> 100 µM
same,TGI,OVCAR-5 ovarian,> 100 µM
same,TGI,OVCAR-8 ovarian,> 100 µM
same,TGI,RPMI-8226 leukemia,> 100 µM
same,TGI,SF-268 CNS,> 100 µM
same,TGI,SF-295 CNS,> 100 µM
same,TGI,SF-539 CNS,> 100 µM
same,TGI,SK-MEL-2 melanoma,> 100 µM
same,TGI,SK-MEL-28 melanoma,> 100 µM
same,TGI,SK-MEL-5 melanoma,> 100 µM
same,TGI,SK-OV-3 ovarian,> 100 µM
same,TGI,SN12C renal,> 100 µM
same,TGI,SNB-19 CNS,> 100 µM
same,TGI,SNB-75 CNS,> 100 µM
same,TGI,SNB-78 CNS,> 100 µM
same,TGI,TK-10 renal,> 100 µM
same,TGI,U251 CNS,> 100 µM
same,TGI,UACC-257 melanoma,> 100 µM
same,TGI,UACC-62 melanoma,> 100 µM
same,TGI,UO-31 renal,> 100 µM
same,TGI,XF 498 CNS,> 100 µM
CCN(CC)CSc1nc2ccccc2s1,TGI,A549 NSCLC,> 100 µM
same,TGI,CAKI-1 renal,> 100 µM
same,TGI,CCRF-CEM leukemia,> 100 µM
same,TGI,COLO 205 colon,> 100 µM
same,TGI,DMS 114 small cell lung,> 100 µM
same,TGI,DMS 273 small cell lung,> 100 µM
same,TGI,EKVX NSCLC,> 100 µM
same,TGI,HCC-2998 colon,> 100 µM
same,TGI,HCT-15 colon,> 100 µM
same,TGI,HL-60(TB) leukemia,> 100 µM
same,TGI,HOP-92 NSCLC,> 100 µM
same,TGI,HT29 colon,> 100 µM
same,TGI,IGROV1 ovarian,> 100 µM
same,TGI,K-562 leukemia,> 100 µM
same,TGI,KM12 colon,> 100 µM
same,TGI,LOX IMVI melanoma,> 100 µM
same,TGI,LXFL 529 NSCLC,> 100 µM
same,TGI,M14 melanoma,> 100 µM
same,TGI,M19-MEL melanoma,> 100 µM
same,TGI,MOLT-4 leukemia,> 100 µM
same,TGI,NCI-H226 lung,> 100 µM
same,TGI,NCI-H23 lung,> 100 µM
same,TGI,NCI-H522 lung,> 100 µM
same,TGI,OVCAR-3 ovarian,> 100 µM
same,TGI,OVCAR-4 ovarian,> 100 µM
same,TGI,OVCAR-8 ovarian,> 100 µM
same,TGI,RPMI-8226 leukemia,> 100 µM
same,TGI,SF-539 CNS,> 100 µM
same,TGI,SK-MEL-28 melanoma,> 100 µM
same,TGI,SK-MEL-5 melanoma,> 100 µM
same,TGI,SK-OV-3 ovarian,> 100 µM
same,TGI,SN12C renal,> 100 µM
same,TGI,SNB-75 CNS,> 100 µM
same,TGI,SNB-78 CNS,> 100 µM
same,TGI,SW-620 colon,> 100 µM
same,TGI,TK-10 renal,> 100 µM
same,TGI,UACC-257 melanoma,> 100 µM
same,TGI,UACC-62 melanoma,> 100 µM
same,TGI,XF 498 CNS,> 100 µM
CCCc1[nH]c(SCCCCCCCCSc2nc(-c3ccc(F)cc3)c(CCC)[nH]2)nc1-c1ccc(F)cc1,TGI,A549 NSCLC,> 100 µM
same,TGI,ACHN renal,> 100 µM
same,TGI,CCRF-CEM leukemia,> 100 µM
same,TGI,COLO 205 colon,> 100 µM
same,TGI,DMS 114 small cell lung,> 100 µM
same,TGI,DMS 273 small cell lung,> 100 µM
same,TGI,EKVX NSCLC,52.5 µM
same,TGI,HCC-2998 colon,> 100 µM
same,TGI,HCT-116 colon,> 100 µM
same,TGI,HCT-15 colon,> 100 µM
same,TGI,HL-60(TB) leukemia,> 100 µM
same,TGI,HOP-18 NSCLC,> 100 µM
same,TGI,HOP-62 NSCLC,> 100 µM
same,TGI,HOP-92 NSCLC,29.6 µM
same,TGI,HT29 colon,> 100 µM
same,TGI,IGROV1 ovarian,> 100 µM
same,TGI,K-562 leukemia,> 100 µM
same,TGI,KM12 colon,> 100 µM
same,TGI,KM20L2 colon,> 100 µM
same,TGI,LOX IMVI melanoma,> 100 µM
same,TGI,LXFL 529 NSCLC,> 100 µM
same,TGI,M14 melanoma,> 100 µM
same,TGI,M19-MEL melanoma,> 100 µM
same,TGI,MOLT-4 leukemia,> 100 µM
same,TGI,NCI-H23 lung,30.6 µM
same,TGI,NCI-H460 lung,> 100 µM
same,TGI,OVCAR-3 ovarian,12.9 µM
same,TGI,OVCAR-4 ovarian,95.4 µM
same,TGI,OVCAR-5 ovarian,> 100 µM
same,TGI,OVCAR-8 ovarian,> 100 µM
same,TGI,RXF 393 renal,> 100 µM
same,TGI,SF-268 CNS,16.9 µM
same,TGI,SF-539 CNS,27.7 µM
same,TGI,SK-MEL-2 melanoma,> 100 µM
same,TGI,SK-MEL-28 melanoma,> 100 µM
same,TGI,SK-MEL-5 melanoma,67.1 µM
same,TGI,SN12C renal,> 100 µM
same,TGI,SNB-19 CNS,> 100 µM
same,TGI,SNB-75 CNS,8.5 µM
same,TGI,SNB-78 CNS,> 100 µM
same,TGI,SR leukemia,> 100 µM
same,TGI,SW-620 colon,> 100 µM
same,TGI,TK-10 renal,> 100 µM
same,TGI,U251 CNS,> 100 µM
same,TGI,UACC-257 melanoma,> 100 µM
same,TGI,UACC-62 melanoma,> 100 µM
same,TGI,UO-31 renal,> 100 µM
